In patent publication US6737383B1, “Herbicidal oxadiazolidines” (priority 1999, dated 2004):

Tests used:
[1] = test system: blackgrass; assay: Test B pre/postemergence blackgrass; type: in vivo, Alopecurus myosuroides
Outline: (§1)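 Test chemicals in a non-phytotoxic solvent mixture with surfactant were sprayed preemergence onto planted seeds and postemergence onto plants 2 to 18 cm tall (1- to 4-leaf stage). After twelve to sixteen days in a greenhouse, injury was visually rated against untreated controls from 0 (no effect) to 10 (complete control).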

[2] = test system: surinam grass; assay: Test B pre/postemergence surinam grass; type: in vivo, Brachiaria decumbens
Outline: as §1

[3] = test system: cocklebur; assay: Test B pre/postemergence cocklebur; type: in vivo, Xanthium strumarium
Outline: as §1

[4] = test system: corn; assay: Test B pre/postemergence corn; type: in vivo, Zea mays
Outline: as §1

[5] = test system: crabgrass; assay: Test B pre/postemergence crabgrass; type: in vivo, Digitaria sanguinalis
Outline: as §1

[6] = test system: giant foxtail; assay: Test B pre/postemergence giant foxtail; type: in vivo, Setaria faberii
Outline: as §1

[7] = test system: morningglory; assay: Test B pre/postemergence morningglory; type: in vivo, Ipomoea hederacea
Outline: as §1

[8] = test system: rape; assay: Test B pre/postemergence rape; type: in vivo, Brassica napus
Outline: as §1

[9] = test system: soybean; assay: Test B pre/postemergence soybean; type: in vivo, Glycine max
Outline: as §1

[10] = test system: sugar beet; assay: Test B pre/postemergence sugar beet; type: in vivo, Beta vulgaris
Outline: as §1

[11] = test system: velvetleaf; assay: Test B pre/postemergence velvetleaf; type: in vivo, Abutilon theophrasti
Outline: as §1

[12] = test system: wheat; assay: Test B pre/postemergence wheat; type: in vivo, Triticum aestivum
Outline: as §1

[13] = test system: wild oat; assay: Test B pre/postemergence wild oat; type: in vivo, Avena fatua
Outline: as §1

[14] = test system: purple nutsedge; assay: Test B pre/postemergence purple nutsedge; type: in vivo, Cyperus rotundus
Outline: as §1

[15] = test system: smallflower flatsedge; assay: Test B flood test smallflower flatsedge; type: in vivo, Cyperus difformis
Outline: (§2)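 Each value is a visual injury score relative to controls, with 10 meaning complete control and 0 no effect. Evaluation took place twelve to sixteen days after the 2-leaf-stage plants were treated and kept in the greenhouse.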

[16] = test system: duck salad; assay: Test B flood test duck salad; type: in vivo, Heteranthera limosa
Outline: as §2

[17] = Postemergence, Rate 62 g/ha, scale 0 to 10, 0 is no effect, 10 is complete control
[18] = Postemergence, Rate 250 g/ha, scale 0 to 10, 0 no effect, 10 complete control
[19] = Preemergence, Rate 62 g/ha, scale 0 to 10, 0 is no effect, 10 is complete control
[20] = Preemergence, Rate 125 g/ha, scale 0 to 10 (0 no effect, 10 complete control)
[21] = Preemergence, Rate 250 g/ha, scale of 0 to 10 where 0 is no effect and 10 is complete control
[22] = Preemergence, Rate 500 g/ha, scale 0 (no effect) to 10 (complete control)
[23] = Rate 125 g/ha, Postemergence, scale 0 to 10, 0 no effect, 10 complete control
[24] = Rate 500 g/ha, Postemergence, 0 to 10 scale (0 no effect, 10 complete control)
[25] = Rate 125 g/ha, Postemergence section (flood test species), scale 0 to 10, 0 no effect, 10 complete control
[26] = flood test, listed under Postemergence, Rate 250 g/ha, scale 0 to 10, 0 no effect, 10 complete control

CCc1ccccc1-n1c(=O)on(C(=O)N(c2ccc(F)cc2)C(C)C)c1=O [Compound 34]
Blackgrass plant response rating [1, 17]: 0 | Blackgrass plant response rating [1, 18]: 6 | Plant response rating, Blackgrass [1, 19]: 3 | Plant response rating, Blackgrass [1, 20]: 5 | Plant response rating, Blackgrass [1, 21]: 6 | Blackgrass plant response rating [1, 22]: 6 | Blackgrass plant response rating [1, 23]: 2 | Blackgrass plant response rating [1, 24]: 9 | B. signalgrass plant response rating [2, 17]: 0 | B. signalgrass plant response rating [2, 18]: 0 | Plant response rating, B. signalgrass [2, 19]: 0 | Plant response rating, B. signalgrass [2, 20]: 1 | Plant response rating, B. signalgrass [2, 21]: 2 | B. signalgrass plant response rating [2, 22]: 3 | B. signalgrass plant response rating [2, 23]: 0 | B. signalgrass plant response rating [2, 24]: 0 | Cocklebur plant response rating [3, 17]: 0 | Cocklebur plant response rating [3, 18]: 0 | Plant response rating, Cocklebur [3, 19]: 0 | Plant response rating, Cocklebur [3, 20]: 0 | Plant response rating, Cocklebur [3, 21]: 0 | Cocklebur plant response rating [3, 22]: 0 | Cocklebur plant response rating [3, 23]: 0 | Cocklebur plant response rating [3, 24]: 4 | Corn plant response rating [4, 17]: 0 | Corn plant response rating [4, 18]: 0 | Plant response rating, Corn [4, 19]: 0 | Plant response rating, Corn [4, 20]: 0 | Plant response rating, Corn [4, 21]: 0 | Corn plant response rating [4, 22]: 0 | Corn plant response rating [4, 23]: 0 | Corn plant response rating [4, 24]: 0 | Crabgrass plant response rating [5, 17]: 0 | Crabgrass plant response rating [5, 18]: 3 | Plant response rating, Crabgrass [5, 19]: 7 | Plant response rating, Crabgrass [5, 20]: 7 | Plant response rating, Crabgrass [5, 21]: 10 | Crabgrass plant response rating [5, 22]: 10 | Crabgrass plant response rating [5, 23]: 0 | Crabgrass plant response rating [5, 24]: 9 | Giant foxtail plant response rating [6, 17]: 0 | Giant foxtail plant response rating [6, 18]: 2 | Plant response rating, Giant foxtail [6, 19]: 2 | Plant response rating, Giant foxtail [6, 20]: 6 | Plant response rating, Giant foxtail [6, 21]: 10 | Giant foxtail plant response rating [6, 22]: 10 | Giant foxtail plant response rating [6, 23]: 0 | Giant foxtail plant response rating [6, 24]: 8 | Morningglory plant response rating [7, 17]: 1 | Morningglory plant response rating [7, 18]: 5 | Plant response rating, Morningglory [7, 19]: 0 | Plant response rating, Morningglory [7, 20]: 0 | Plant response rating, Morningglory [7, 21]: 0 | Morningglory plant response rating [7, 22]: 0 | Morningglory plant response rating [7, 23]: 2 | Morningglory plant response rating [7, 24]: 8 | Rape plant response rating [8, 17]: 0 | Rape plant response rating [8, 18]: 0 | Plant response rating, Rape [8, 19]: 0 | Plant response rating, Rape [8, 20]: 0 | Plant response rating, Rape [8, 21]: 0 | Rape plant response rating [8, 22]: 3 | Rape plant response rating [8, 23]: 0 | Rape plant response rating [8, 24]: 0 | Soybean plant response rating [9, 17]: 0 | Soybean plant response rating [9, 18]: 0 | Plant response rating, Soybean [9, 19]: 0 | Plant response rating, Soybean [9, 20]: 0 | Plant response rating, Soybean [9, 21]: 0 | Soybean plant response rating [9, 22]: 0 | Soybean plant response rating [9, 23]: 0 | Sugarbeets plant response rating [10, 17]: 0 | Sugarbeets plant response rating [10, 18]: 0 | Plant response rating, Sugarbeets [10, 19]: 0 | Plant response rating, Sugarbeets [10, 20]: 0 | Plant response rating, Sugarbeets [10, 21]: 0 | Sugarbeets plant response rating [10, 22]: 4 | Sugarbeets plant response rating [10, 23]: 0 | Velvetleaf plant response rating [11, 17]: 0 | Velvetleaf plant response rating [11, 18]: 2 | Plant response rating, Velvetleaf [11, 19]: 0 | Plant response rating, Velvetleaf [11, 20]: 0 | Plant response rating, Velvetleaf [11, 21]: 0 | Velvetleaf plant response rating [11, 22]: 2 | Velvetleaf plant response rating [11, 23]: 0 | Wheat plant response rating [12, 17]: 0 | Wheat plant response rating [12, 18]: 0 | Plant response rating, Wheat [12, 19]: 0 | Plant response rating, Wheat [12, 20]: 0 | Plant response rating, Wheat [12, 21]: 0 | Wheat plant response rating [12, 22]: 2 | Wheat plant response rating [12, 23]: 0 | Wild oats plant response rating [13, 17]: 0 | Wild oats plant response rating [13, 18]: 0 | Plant response rating, Wild oats [13, 20]: 0 | Plant response rating, Wild oats [13, 21]: 2 | Wild oats plant response rating [13, 22]: 7 | Wild oats plant response rating [13, 23]: 0 | Nutsedge plant response rating [14, 17]: 0 | Nutsedge plant response rating [14, 18]: 0 | Plant response rating, Nutsedge [14, 19]: 0 | Plant response rating, Nutsedge [14, 20]: 0 | Plant response rating, Nutsedge [14, 21]: 0 | Nutsedge plant response rating [14, 22]: 0 | Nutsedge plant response rating [14, 23]: 0 | Nutsedge plant response rating [14, 24]: 0 | S. Flatsedge plant response rating [15, 17]: 0 | S. Flatsedge plant response rating [15, 25]: 0 | S. Flatsedge plant response rating [15, 26]: 0 | Ducksalad plant response rating [16, 17]: 0 | Ducksalad plant response rating [16, 25]: 0 | Ducksalad plant response rating ([16]; Rate 500 g/ha, Postemergence section of Table B, 0 to 10 scale (0 no effect, 10 complete control)): 0 | Ducksalad plant response rating [16, 26]: 0
